Data reported in patent publication US8815953B2, “Formulations of vitamin K analogs for topical use” (Spectrum Pharmaceuticals, Inc., priority 2008, dated 2014).

What was measured:
[1] = Estimated solubility of menadione in single solvents; assay type: physicochemical
Protocol: This study focused on evaluating the solubility properties of menadione in hydrophilic and lipophilic excipients used in topical pharmaceutical products. Initially, solubility studies were conducted in single solvents.

[2] = Menadione compatibility with single solvent systems (1% w/w solutions, 1 month storage); assay type: physicochemical
Protocol: Based on the single solvent solubility data, a menadione compatibility study with selected solvents was conducted. Solutions containing 1% w/w of menadione were prepared, packaged in borosilicate clear glass vials, wrapped in aluminum foil and stored at 5° C. (dark), 25° C. (dark), and 40° C. (dark) for a period of 1 month. The physico-chemical properties of the 1% menadione single solvent solutions are presented in: Table 2.

[3] = In vitro percutaneous absorption of (14C)-Menadione Study #2, abraded skin; assay type: in vitro ADME, human; conditions: abraded skin versus normal skin
Protocol: Percutaneous absorption of (^14C)-Menadione was also evaluated using abraded human skin in the lead formulation at 0.05, 0.1, and 0.2% Menadione and the backup formulation at 0.2% Menadione. Abraded skin was evaluated as a possible simulation of the type of broken and/or compromised skin that may be present in the case of a skin rash caused by an EGFR inhibitor. The respective skin permeation values are presented in: Table 18.

[4] = test system: EGFR-mediated signaling; conditions: topical application, secondary to systemic erlotinib and cetuximab; cited from earlier work
[5] = test system: EGFR and other growth factor-related phosphatase; conditions: cited from earlier work

Structure (SMILES): CC1=CC(=O)c2ccccc2C1=O [Menadione, 2-methyl-1,4-naphthoquinone]
- Estimated Solubility ([1]; in Benzyl Alcohol): Greater than 10% w/w
- Estimated Solubility ([1]; in Dimethyl Isosorbide): Greater than 10% w/w
- Estimated Solubility ([1]; in Mineral Oil): Less than 0.1% w/w
- Estimated Solubility ([1]; in Polyethylene Glycol 400): Greater than 2% w/w
- Estimated Solubility ([1]; in Propylene Glycol): Less than 1% w/w
- Estimated Solubility ([1]; in Purified Water): Less than 0.04% w/w
- Compatibility of menadione with solvent (physical appearance and potency by HPLC) ([2]; caprylic/capric triglyceride, diethyl sebacate, diisopropyl adipate, isopropyl myristate, 1 month at 5, 25, 40° C. dark): compatible
- Compatibility of menadione with solvent (discoloration) ([2]; dimethyl isosorbide, transcutol and polyethylene glycol 400, all conditions evaluated): signs of incompatibility
- Epidermal levels of the drug [3]: lower
- EGFR-mediated signaling in human skin [4]: restore EGFR-mediated signaling
- EGF activating activity [5]: direct EGF activating activity
- EGFR and other growth factor-related phosphatase inhibitory activity [5]: inhibitory activity
